Results from PMC2778829, “Functional Characterization of the Canine Heme-Regulated eIF2α Kinase: Regulation of Protein Synthesis” (Advances in Hematology, 2009).

Assays:
Format in all cases: biochemical
[1] = biological target: T1, canine heme-regulated inhibitor (HRI), heme-regulated eIF2α kinase (Canis lupus, UniProt C4PB17); experiment: AlphaScreen kinase assay with purified HRI, biotinylated Poly-GT substrate, […] ATP
T1 construct: full-length HRI, His6-tagged, expressed in Sf9 cells

[2] = biological target: T2, human heme-regulated inhibitor (HRI), heme-regulated eIF2α kinase (Homo sapiens, UniProt Q9BQI3); experiment: in-vitro kinase assay (AlphaScreen) with purified HRI
T2 construct: gene EIF2AK1; expressed in Sf9 cells, purified by Ni-NTA

[3] = biological target: T3, mouse heme-regulated inhibitor (HRI), heme-regulated eIF2α kinase (Mus musculus, UniProt Q9Z2R9); experiment: as above
T3 construct: gene Eif2ak1; expressed in Sf9 cells, purified by Ni-NTA

Measured: IC50

T1 sequence (C4PB17 1-630): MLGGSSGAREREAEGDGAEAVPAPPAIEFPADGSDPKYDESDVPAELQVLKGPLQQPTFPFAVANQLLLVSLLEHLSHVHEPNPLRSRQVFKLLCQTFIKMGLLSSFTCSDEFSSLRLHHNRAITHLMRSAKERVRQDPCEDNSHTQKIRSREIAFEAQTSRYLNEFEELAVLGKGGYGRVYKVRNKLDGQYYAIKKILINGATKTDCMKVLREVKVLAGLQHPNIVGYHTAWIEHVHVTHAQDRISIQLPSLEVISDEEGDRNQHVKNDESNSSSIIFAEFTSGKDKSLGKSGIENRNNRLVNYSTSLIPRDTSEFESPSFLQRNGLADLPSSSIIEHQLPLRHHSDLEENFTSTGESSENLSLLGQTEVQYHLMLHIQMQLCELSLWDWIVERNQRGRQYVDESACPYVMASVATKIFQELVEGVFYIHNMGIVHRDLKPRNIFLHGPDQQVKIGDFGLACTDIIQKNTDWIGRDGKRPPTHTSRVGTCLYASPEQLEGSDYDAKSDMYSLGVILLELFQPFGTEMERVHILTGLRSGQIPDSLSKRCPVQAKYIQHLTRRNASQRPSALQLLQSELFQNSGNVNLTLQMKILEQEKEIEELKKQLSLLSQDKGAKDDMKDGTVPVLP
T3 sequence (Q9Z2R9 whole entry): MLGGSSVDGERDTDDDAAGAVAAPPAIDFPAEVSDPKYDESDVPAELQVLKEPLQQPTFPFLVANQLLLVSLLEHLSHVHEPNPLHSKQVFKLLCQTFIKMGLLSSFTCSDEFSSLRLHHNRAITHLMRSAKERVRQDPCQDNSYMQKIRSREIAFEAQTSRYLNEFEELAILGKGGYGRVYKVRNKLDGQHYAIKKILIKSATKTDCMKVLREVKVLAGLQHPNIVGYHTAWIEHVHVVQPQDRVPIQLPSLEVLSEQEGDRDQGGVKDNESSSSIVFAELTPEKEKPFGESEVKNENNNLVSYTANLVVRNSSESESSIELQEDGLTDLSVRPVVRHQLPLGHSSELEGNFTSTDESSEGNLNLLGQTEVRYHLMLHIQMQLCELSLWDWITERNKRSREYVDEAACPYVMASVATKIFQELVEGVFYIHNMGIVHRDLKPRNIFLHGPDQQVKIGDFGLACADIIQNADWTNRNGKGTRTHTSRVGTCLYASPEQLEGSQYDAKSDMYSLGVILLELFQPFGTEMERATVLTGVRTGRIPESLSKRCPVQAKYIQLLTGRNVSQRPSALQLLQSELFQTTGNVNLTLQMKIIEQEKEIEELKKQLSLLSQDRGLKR
T2 sequence (Q9BQI3 whole entry): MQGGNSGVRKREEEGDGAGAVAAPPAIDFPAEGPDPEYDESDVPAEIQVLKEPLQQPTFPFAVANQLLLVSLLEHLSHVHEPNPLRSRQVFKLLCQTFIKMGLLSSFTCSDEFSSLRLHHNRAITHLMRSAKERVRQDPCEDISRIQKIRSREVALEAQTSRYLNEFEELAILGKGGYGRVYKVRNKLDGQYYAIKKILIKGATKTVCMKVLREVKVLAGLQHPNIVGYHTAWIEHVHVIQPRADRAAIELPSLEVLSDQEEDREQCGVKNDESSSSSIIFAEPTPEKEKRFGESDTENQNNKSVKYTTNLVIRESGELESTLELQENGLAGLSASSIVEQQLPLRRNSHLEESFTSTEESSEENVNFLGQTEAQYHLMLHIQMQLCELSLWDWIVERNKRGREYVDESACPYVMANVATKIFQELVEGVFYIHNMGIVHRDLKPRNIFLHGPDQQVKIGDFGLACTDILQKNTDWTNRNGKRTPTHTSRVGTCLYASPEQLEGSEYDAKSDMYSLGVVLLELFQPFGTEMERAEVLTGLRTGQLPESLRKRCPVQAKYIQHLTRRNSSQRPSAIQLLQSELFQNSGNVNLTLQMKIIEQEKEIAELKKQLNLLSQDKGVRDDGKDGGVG

O=c1c(O)c(-c2ccc(O)c(O)c2)oc2cc(O)cc(O)c12 [quercetin, 3,3′,4′,5,7-pentahydroxyflavone]
~1000 nM: all assays above
